# Data: PMC6073313, “Comparison of the Anion Inhibition Profiles of the α-CA Isoforms (SpiCA1, SpiCA2 and SpiCA3) from the Scleractinian Coral Stylophora pistillata” (International Journal of Molecular Sciences, 2018)
# Molecular target: T1, SpiCA3 (Stylophora pistillata, UniProt A0A1B0Y357)
# T1 construct: gene CA3
# T1 sequence (A0A1B0Y357 1-258): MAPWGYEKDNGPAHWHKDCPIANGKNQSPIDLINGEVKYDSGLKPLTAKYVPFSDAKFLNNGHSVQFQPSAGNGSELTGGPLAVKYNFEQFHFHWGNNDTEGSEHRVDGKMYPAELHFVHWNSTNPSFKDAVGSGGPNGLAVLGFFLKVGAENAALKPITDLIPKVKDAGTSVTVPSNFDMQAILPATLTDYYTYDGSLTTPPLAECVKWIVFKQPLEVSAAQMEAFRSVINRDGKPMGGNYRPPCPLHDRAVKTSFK
# Test: stopped-flow CO2 hydration, phenol red, Cheng-Prusoff
# Assay type: biochemical
# Details: not given
row,SMILES,Ki [mM]
1,Cl [Cl^−],0.51
2,O=C(O)O [HCO3^−],0.4
3,S [HS^−],0.34
4,I [I^−],0.56
5,[N-]=[N+]=[N-] [N3^−],0.08
6,O=NO [NO2^−],0.45
7,OB(O)c1ccccc1 [Ph-B(OH)2],> 100
8,N#C[SeH] [SeCN^−],0.15
9,O=S(=O)(O)C(F)(F)F [Triflate],0.29

# Same assay, conditions: read-out: KI [mM] ^# / SpiCA3 ^c
row,Ki [mM],SMILES
1,0.47,S=C(S)S [CS3^2^−]
2,0.044,CCN(CC)C(=S)S [Et2NCS2^−]
3,0.0007,NS(N)(=O)=O [H2NSO2NH2]
4,> 100,NS(=O)(=O)O [H2NSO3H]
